In patent US9221835B2, “Spirocyclic derivatives as antiparasitic agents” (Zoetis Services LLC, priority 2012, dated 2015):
Where a name gives a salt, the structure may show the parent alone.

Experiments:
Format in all cases: in vivo
[1] = tested on: Mosquito (Aedes aeqypti) larvae; experiment: Mosquito (Aedes aeqypti) Larval Assay; details: first instar larvae, 25° C., 24 hours, lowest dose to inhibit motility ≧50% of untreated controls, half-log intervals, read-out: Minimum Effective Concentration (MEC)
Protocol: Mosquito (Aedes aeqypti) Larval Assay
Compounds were dissolved in DMSO and aliquots were spotted to empty wells. First instar mosquito larvae and maintenance media were added to the wells to obtain between 8 and 15 larvae per well in the appropriate final assay volume. Larvae were incubated in the treated media at 25° C. for 24 hours. Mosquito larvae motility was measured at 24 hours. Each compound was tested at half-log intervals, and endpoint results were recorded as Minimum Effective Concentration (MEC) in μM. MEC is an objective assessment of organism motility, and is the lowest dose to inhibit motility ≧50% of untreated controls.

[2] = tested on: Flea (Ctenocephalides felis); experiment: Flea (Ctenocephalides felis) Membrane Feed Assay-Adult; details: adult fleas fed on treated citrated bovine blood for 24 hours, lowest dose to cause mortality ≧50%, half-log intervals, read-out: Minimum Effective Concentration (MEC)
Protocol: Flea (Ctenocephalides felis) Membrane Feed Assay-Adult
Compounds were dissolved in DMSO and aliquots were added to citrated bovine blood in membrane covered wells warmed to 37° C. Adult fleas were newly emerged (3-7 days) and unfed. Feeding wells containing approximately 10 adult fleas were placed onto the treated blood wells, and the fleas were allowed to feed on the treated blood for 24 hours. […] Each compound was tested at half-log intervals, and endpoint data was recorded as Minimum Effective Concentration in μM. MEC is a subjective visual assessment of organism viability, and is the lowest dose to cause mortality ≧50%.

[3] = tested on: Soft Tick (Ornithidorus turicata); experiment: Soft Tick (Ornithidorus turicata) Blood Feed Assay; details: nymph stage ticks fed on treated citrated bovine blood; paralysis and/or death observed at approximately 24, 48 and 72 hours
Protocol: Soft Tick (Ornithidorus turicata) Blood Feed Assay
Compounds of the present invention were dissolved in dimethylsulfoxide (DMSO) and aliquots added to citrated bovine blood in a membrane covered Petri dish. The Petri dish is placed on a warming tray. Approximately 5 nymph stage ticks are placed onto the membrane, covered, and left to feed. Fed ticks are removed and placed into a Petri dish with sand. […] Endpoint data was recorded as a 100% lethal dose (LD^100) in μg/mL.

Structure (SMILES) | minimal effective concentration [1] | minimal effective concentration [2] | 100% lethal dose (LD100) [3]
CC(C)C(=O)N1CC2(C1)OCc1cc(C3=NCC(c4cc(Cl)c(Cl)c(Cl)c4)(C(F)(F)F)C3)ccc12 (stereo not shown) [Example 2, 2-methyl-1-(5′-(3-(3,4,5-trichlorophenyl)-3-(trifluoromethyl)-3,4-dihydro-2H-pyrrol-5-yl)-3′H-spiro[azetidine-3,1′-isobenzofuran]-1-yl)propan-1-one] | 0.1 µM | – | –
CS(=O)(=O)CC(=O)N1CC2(C1)OCc1cc(C3=NCC(c4cc(Cl)c(F)c(Cl)c4)(C(F)(F)F)C3)ccc12 (stereo not shown) [Example 3, 1-(5′-(3-(3,5-dichloro-4-fluorophenyl)-3-(trifluoromethyl)-3,4-dihydro-2H-pyrrol-5-yl)-3′H-spiro[azetidine-3,1′-isobenzofuran]-1-yl)-2-(methylsulfonyl)ethanone] | 0.03 µM | – | –
CC(C)C(=O)N1CC2(C1)OCc1cc(C3=NCC(c4cc(Cl)c(F)c(Cl)c4)(C(F)(F)F)C3)ccc12 (stereo not shown) [Example 4, 1-(5′-(3-(3,5-dichloro-4-fluorophenyl)-3-(trifluoromethyl)-3,4-dihydro-2H-pyrrol-5-yl)-3′H-spiro[azetidine-3,1′-isobenzofuran]-1-yl)-2-methyl propan-1-one] | 0.1 µM | – | –
CS(=O)(=O)CC(=O)N1CC2(C1)OCc1cc(C3=NCC(c4cc(Cl)cc(Cl)c4)(C(F)(F)F)C3)ccc12 (stereo not shown) [Example 5, 1-(5′-(3-(3,5-dichlorophenyl)-3-(trifluoromethyl)-3,4-dihydro-2H-pyrrol-5-yl)-3′H-spiro[azetidine-3,1′-isobenzofuran]-1-yl)-2-(methylsulfonyl)ethanone] | 0.03 µM | 0.3 µM | –
CS(=O)(=O)CC(=O)N1CC2(C1)OCc1cc(C3=COC(c4cc(Cl)cc(Cl)c4)(C(F)(F)F)C3)ccc12 (stereo not shown) [Example 7, 5′-[5-(3,5-dichlorophenyl)-5-(trifluoromethyl)-4,5-dihydrofuran-3-yl]-1-[(methylsulfonyl)acetyl]-3′H-spiro[azetidine-3,1′-[2]benzofuran]] | > 3 µM | – | –
CC(C)C(=O)N1CC2(C1)OCc1cc(C3=COC(c4cc(Cl)cc(Cl)c4)(C(F)(F)F)C3)ccc12 (stereo not shown) [Example 8, 5′-[5-(3,5-dichlorophenyl)-5-(trifluoromethyl)-4,5-dihydrofuran-3-yl]-1-isobutyryl-3′H-spiro[azetidine-3,1′-[2]benzofuran]] | > 3 µM | – | –
CS(=O)(=O)CC(=O)N1CC2(C1)OCc1cc(C3=COC(c4cc(Cl)c(Cl)c(Cl)c4)(C(F)(F)F)C3)ccc12 (stereo not shown) [Example 9, 2-(methylsulfonyl)-1-(5′-(5-(3,4,5-trichlorophenyl)-5-(trifluoromethyl)-4,5-dihydrofuran-3-yl)-3′H-spiro[azetidine-3,1′-isobenzofuran]-1-yl)ethanone] | > 3 µM | – | –
CC(C)C(=O)N1CC2(C1)OCc1cc(C3=COC(c4cc(Cl)c(Cl)c(Cl)c4)(C(F)(F)F)C3)ccc12 (stereo not shown) [Example 10] | > 3 µM | – | –
CS(=O)(=O)CC(=O)N1CC2(C1)OCc1cc(C3=COC(c4cc(Cl)c(F)c(Cl)c4)(C(F)(F)F)C3)ccc12 (stereo not shown) [Example 11, 5′-[5-(3,5-dichloro-4-fluorophenyl)-5-(trifluoromethyl)-4,5-dihydrofuran-3-yl]-1-[(methylsulfonyl)acetyl]-3′H-spiro[azetidine-3,1′-[2]benzofuran]] | > 3 µM | – | –
CC(C)C(=O)N1CC2(C1)OCc1cc(C3=COC(c4cc(Cl)c(F)c(Cl)c4)(C(F)(F)F)C3)ccc12 (stereo not shown) [Example 12, 5′-[5-(3,5-dichloro-4-fluorophenyl)-5-(trifluoromethyl)-4,5-dihydrofuran-3-yl]-1-isobutyryl-3′H-spiro[azetidine-3,1′-[2]benzofuran]] | > 3 µM | – | –
CN1N=C(c2ccc3c(c2)COC32CN(C(=O)CS(C)(=O)=O)C2)CC1(c1cc(Cl)c(F)c(Cl)c1)C(F)(F)F (stereo not shown) [Example 14, 1-(5′-(5-(3,5-dichloro-4-fluorophenyl)-1-methyl-5-(trifluoromethyl)-4,5-di hydro-1H-pyrazol-3-yl)-3′H-spiro[azetidine-3,1′-isobenzofuran]-1-yl)-2-(methylsulfonyl)ethanone] | – | ≥ 3 µM | 0.1 µg/mL
CC(C)C(=O)N1CC2(C1)OCc1cc(C3=NNC(c4cc(Cl)c(F)c(Cl)c4)(C(F)(F)F)C3)ccc12 (stereo not shown) [Example 15, 1-(5′-(5-(3,5-dichloro-4-fluorophenyl)-5-(trifluoromethyl)-4,5-dihydro-1H-pyrazol-3-yl)-3′H-spiro[azetidine-3,1′-isobenzofuran]-1-yl)-2-methylpropan-1-one] | – | ≥ 3 µM | 0.03 µg/mL
CC(C)C(=O)N1CC2(C1)OCc1cc(C3=NN(C)C(c4cc(Cl)c(F)c(Cl)c4)(C(F)(F)F)C3)ccc12 (stereo not shown) [Example 16, 1-(5′-(5-(3,5-dichloro-4-fluorophenyl)-1-methyl-5-(trifluoromethyl)-4,5-dihydro-1H-pyrazol-3-yl)-3′H-spiro[azetidine-3,1′-isobenzofuran]-1-yl)-2-methylpropan-1-one] | – | 1 µM | 0.03 µg/mL
CC(C)C(=O)N1CC2(C1)OCc1cc(C3=NNC(c4cc(Cl)c(Cl)c(Cl)c4)(C(F)(F)F)C3)ccc12 (stereo not shown) [Example 17] | – | ≥ 3 µM | –
CS(=O)(=O)CC(=O)N1CC2(C1)OCc1cc(C3=NNC(c4cc(Cl)c(Cl)c(Cl)c4)(C(F)(F)F)C3)ccc12 (stereo not shown) [Example 18, 2-(methylsulfonyl)-1-(5′-(5-(3,4,5-trichlorophenyl)-5-(trifluoromethyl)-4,5-dihydro-1H-pyrazol-3-yl)-3′H-spiro[azetidine-3,1′-isobenzofuran]-1-yl)ethanone hydrochloride] | – | ≥ 3 µM | –
CC(C)C(=O)N1CC2(C1)OCc1cc(C3=NNC(c4cc(Cl)cc(Cl)c4)(C(F)(F)F)C3)ccc12 (stereo not shown) [Example 19, 1-(5′-(5-(3,5-dichlorophenyl)-5-(trifluoromethyl)-4,5-dihydro-1H-pyrazol-3-yl)-3′H-spiro[azetidine-3,1′-isobenzofuran]-1-yl)-2-methylpropan-1-one hydrochloride] | 0.1 µM | ≥ 3 µM | –
CS(=O)(=O)CC(=O)N1CC2(C1)OCc1cc(C3=NNC(c4cc(Cl)cc(Cl)c4)(C(F)(F)F)C3)ccc12 (stereo not shown) [Example 20] | 0.1 µM | ≥ 3 µM | –
CC(C)C(=O)N1CC2(C1)OCc1cc(N3CCC(c4cc(Cl)c(F)c(Cl)c4)(C(F)(F)F)C3)ccc12 (stereo not shown) [Example 21] | – | ≥ 3 µM | 0.01 µg/mL
CC(C)C(=O)N1CC2(C1)OCc1cc(N3CCC(c4cc(Cl)cc(Cl)c4)(C(F)(F)F)C3)ccc12 (stereo not shown) [Example 24] | > 3 µM | ≥ 3 µM | –
CC(C)C(=O)N1CC2(C1)OCc1cc(N3CCC(c4cc(Cl)c(Cl)c(Cl)c4)(C(F)(F)F)C3)ccc12 (stereo not shown) [Example 25] | > 3 µM | ≥ 3 µM | –
CS(=O)(=O)CC(=O)N1CC2(C1)OCc1cc(C3=NOC(c4cc(Cl)c(F)c(Cl)c4)(C(F)(F)F)O3)ccc12 (stereo not shown) [Example 27, 1-(5′-(5-(3,5-dichloro-4-fluorophenyl)-5-(trifluoromethyl)-1,4,2-dioxazol-3-yl)-3′H-spiro[azetidine-3,1′-isobenzofuran]-1-yl)-2-(methylsulfonyl)ethanone] | > 3 µM | ≥ 3 µM | –
CS(=O)(=O)CC(=O)N1CC2(C1)OCc1cc(C3=NOC(c4cc(Cl)cc(Cl)c4)(C(F)(F)F)O3)ccc12 (stereo not shown) [Example 29, 1-(5-(5-(3,5-dichlorophenyl)-5-(trifluoromethyl)-1,4,2-dioxazol-3-yl)-3′H-spiro[azetidine-3,1′-isobenzofuran]-1-yl)-2-(methylsulfonyl)ethanone] | > 3 µM | ≥ 3 µM | –
CC(C)C(=O)N1CC2(C1)OCc1cc(C3=NOC(c4cc(Cl)cc(Cl)c4)(C(F)(F)F)O3)ccc12 (stereo not shown) [Example 30, 1-(5-(5-(3,5-dichlorophenyl)-5-(trifluoromethyl)-1,4,2-dioxazol-3-yl)-3′H-spiro[azetidine-3,1′-isobenzofuran]-1-yl)-2-methylpropan-1-one] | – | ≥ 3 µM | 0.3 µg/mL
CS(=O)(=O)CC(=O)N1CC2(C1)OCc1cc(C3=NOC(c4cc(Cl)c(Cl)c(Cl)c4)(C(F)(F)F)O3)ccc12 (stereo not shown) [Example 32, 2-(methylsulfonyl)-1-(5′-(5-(3,4,5-trichlorophenyl)-5-(trifluoromethyl)-1,4,2-dioxazol-3-yl)-3′H-spiro[azetidine-3,1′-isobenzofuran]-1-yl)ethanone] | > 3 µM | ≥ 3 µM | –
